Assay results published in ChEMBL document CHEMBL5291721, “A preclinical secondary pharmacology resource illuminates target-adverse drug reaction associations of marketed drugs” (Nat Commun, 2023).

What was measured:
[1] = molecular target: Beta-2 adrenergic receptor (Homo sapiens, UniProt P07550)
[2] = molecular target: Sodium-dependent noradrenaline transporter (Homo sapiens, UniProt P23975)
[3] = molecular target: T1, Estrogen receptor (Homo sapiens, UniProt P03372)
T1 sequence (P03372 whole entry): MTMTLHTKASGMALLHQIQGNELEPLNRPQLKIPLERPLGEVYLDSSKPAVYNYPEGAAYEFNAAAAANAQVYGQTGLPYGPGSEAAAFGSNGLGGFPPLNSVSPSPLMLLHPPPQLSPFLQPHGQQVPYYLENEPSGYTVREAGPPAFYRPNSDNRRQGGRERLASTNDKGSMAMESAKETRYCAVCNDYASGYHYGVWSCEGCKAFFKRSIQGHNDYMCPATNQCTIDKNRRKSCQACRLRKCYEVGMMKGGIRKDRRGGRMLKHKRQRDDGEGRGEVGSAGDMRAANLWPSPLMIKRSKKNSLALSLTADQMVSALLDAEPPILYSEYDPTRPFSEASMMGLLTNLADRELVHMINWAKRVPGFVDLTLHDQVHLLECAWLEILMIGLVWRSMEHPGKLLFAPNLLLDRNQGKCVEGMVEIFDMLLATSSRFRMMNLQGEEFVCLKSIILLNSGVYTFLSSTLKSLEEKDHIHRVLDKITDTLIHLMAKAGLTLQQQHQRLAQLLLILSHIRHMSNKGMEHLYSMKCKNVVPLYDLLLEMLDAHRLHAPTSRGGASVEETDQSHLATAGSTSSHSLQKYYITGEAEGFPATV

[4] = molecular target: T2, Gastrin/cholecystokinin type B receptor (Homo sapiens, UniProt P32239)
T2 sequence (P32239 whole entry): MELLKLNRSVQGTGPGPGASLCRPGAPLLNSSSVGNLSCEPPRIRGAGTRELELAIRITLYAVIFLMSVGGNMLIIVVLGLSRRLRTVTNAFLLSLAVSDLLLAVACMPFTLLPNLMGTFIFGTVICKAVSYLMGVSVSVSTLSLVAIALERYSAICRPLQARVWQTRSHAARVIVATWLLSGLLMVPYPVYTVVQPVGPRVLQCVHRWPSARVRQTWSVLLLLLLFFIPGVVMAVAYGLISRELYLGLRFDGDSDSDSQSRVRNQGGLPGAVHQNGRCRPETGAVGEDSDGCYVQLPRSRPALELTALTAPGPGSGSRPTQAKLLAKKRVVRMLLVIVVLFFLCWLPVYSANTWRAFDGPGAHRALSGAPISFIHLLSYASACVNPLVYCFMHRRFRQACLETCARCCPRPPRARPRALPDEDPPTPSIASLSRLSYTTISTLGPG

[5] = molecular target: Voltage-dependent L-type calcium channel subunit alpha-1C (Rattus norvegicus, UniProt P22002); assay type: functional
Sequence of Voltage-dependent L-type calcium channel subunit alpha-1C (P22002 whole entry): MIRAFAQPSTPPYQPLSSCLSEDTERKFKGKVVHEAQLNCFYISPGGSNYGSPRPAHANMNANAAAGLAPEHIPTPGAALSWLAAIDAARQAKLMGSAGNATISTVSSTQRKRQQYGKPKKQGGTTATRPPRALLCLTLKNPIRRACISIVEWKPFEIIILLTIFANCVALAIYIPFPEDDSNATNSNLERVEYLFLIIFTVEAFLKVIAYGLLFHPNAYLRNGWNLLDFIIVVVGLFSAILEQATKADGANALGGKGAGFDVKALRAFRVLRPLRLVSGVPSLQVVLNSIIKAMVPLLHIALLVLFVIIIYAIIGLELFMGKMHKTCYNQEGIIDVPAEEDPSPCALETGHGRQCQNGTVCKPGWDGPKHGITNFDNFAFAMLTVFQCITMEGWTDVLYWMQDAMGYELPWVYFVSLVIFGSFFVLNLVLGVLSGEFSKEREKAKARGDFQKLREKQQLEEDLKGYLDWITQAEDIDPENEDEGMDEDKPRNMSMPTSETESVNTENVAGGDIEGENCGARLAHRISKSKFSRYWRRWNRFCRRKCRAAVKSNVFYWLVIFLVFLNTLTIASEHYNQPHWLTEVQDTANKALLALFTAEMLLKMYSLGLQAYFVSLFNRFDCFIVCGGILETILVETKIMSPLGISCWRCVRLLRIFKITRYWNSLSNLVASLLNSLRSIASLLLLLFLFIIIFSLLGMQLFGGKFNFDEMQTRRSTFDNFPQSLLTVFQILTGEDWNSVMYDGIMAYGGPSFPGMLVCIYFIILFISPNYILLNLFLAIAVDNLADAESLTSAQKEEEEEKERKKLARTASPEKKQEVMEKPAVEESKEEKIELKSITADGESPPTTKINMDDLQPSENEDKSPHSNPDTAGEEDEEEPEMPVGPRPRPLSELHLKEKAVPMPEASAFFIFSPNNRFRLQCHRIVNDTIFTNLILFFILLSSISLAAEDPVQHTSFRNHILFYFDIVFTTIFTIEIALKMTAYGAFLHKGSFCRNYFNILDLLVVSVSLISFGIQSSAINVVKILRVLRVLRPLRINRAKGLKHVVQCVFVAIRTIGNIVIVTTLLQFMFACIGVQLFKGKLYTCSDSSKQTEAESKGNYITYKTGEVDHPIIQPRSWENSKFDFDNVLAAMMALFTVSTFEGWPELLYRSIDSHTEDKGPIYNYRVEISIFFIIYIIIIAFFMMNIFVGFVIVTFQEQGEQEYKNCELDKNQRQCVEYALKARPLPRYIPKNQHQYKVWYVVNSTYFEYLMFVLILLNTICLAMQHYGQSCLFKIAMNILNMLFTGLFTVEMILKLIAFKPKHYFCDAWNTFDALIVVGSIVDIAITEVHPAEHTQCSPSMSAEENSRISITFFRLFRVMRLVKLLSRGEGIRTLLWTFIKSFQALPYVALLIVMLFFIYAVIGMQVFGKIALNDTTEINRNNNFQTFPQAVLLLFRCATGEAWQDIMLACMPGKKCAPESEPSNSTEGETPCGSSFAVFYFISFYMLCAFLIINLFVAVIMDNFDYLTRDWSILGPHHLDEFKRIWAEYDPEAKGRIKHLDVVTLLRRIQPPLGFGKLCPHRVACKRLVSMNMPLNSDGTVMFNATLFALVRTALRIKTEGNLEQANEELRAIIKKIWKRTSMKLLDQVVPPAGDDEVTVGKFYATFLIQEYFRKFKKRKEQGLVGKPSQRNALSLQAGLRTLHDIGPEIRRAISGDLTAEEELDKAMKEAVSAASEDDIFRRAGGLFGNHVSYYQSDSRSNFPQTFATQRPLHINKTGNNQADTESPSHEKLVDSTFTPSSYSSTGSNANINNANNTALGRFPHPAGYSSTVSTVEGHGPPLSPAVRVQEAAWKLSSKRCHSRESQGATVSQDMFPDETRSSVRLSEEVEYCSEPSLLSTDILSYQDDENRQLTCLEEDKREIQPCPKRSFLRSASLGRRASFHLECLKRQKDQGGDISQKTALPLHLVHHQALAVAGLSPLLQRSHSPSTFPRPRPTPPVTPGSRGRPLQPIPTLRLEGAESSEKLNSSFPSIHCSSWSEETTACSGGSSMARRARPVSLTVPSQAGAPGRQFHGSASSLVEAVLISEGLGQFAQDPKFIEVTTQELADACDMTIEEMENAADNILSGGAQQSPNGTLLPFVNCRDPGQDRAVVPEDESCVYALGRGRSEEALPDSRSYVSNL

[6] = molecular target: T3, Adenosine receptor A3 (Homo sapiens, UniProt P0DMS8)
T3 sequence (P0DMS8 whole entry): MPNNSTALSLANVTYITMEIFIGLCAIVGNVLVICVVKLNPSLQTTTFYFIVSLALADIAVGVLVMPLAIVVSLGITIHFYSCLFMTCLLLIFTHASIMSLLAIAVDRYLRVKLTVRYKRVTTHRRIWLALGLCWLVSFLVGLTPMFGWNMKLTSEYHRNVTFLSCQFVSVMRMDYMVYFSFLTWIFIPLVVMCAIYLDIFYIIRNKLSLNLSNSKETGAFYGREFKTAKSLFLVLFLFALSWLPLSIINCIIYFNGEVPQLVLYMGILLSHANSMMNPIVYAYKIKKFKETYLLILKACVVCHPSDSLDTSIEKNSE

[7] = molecular target: T4, Muscarinic acetylcholine receptor M2 (Homo sapiens, UniProt P08172); assay type: functional, cell-based
T4 sequence (P08172 whole entry): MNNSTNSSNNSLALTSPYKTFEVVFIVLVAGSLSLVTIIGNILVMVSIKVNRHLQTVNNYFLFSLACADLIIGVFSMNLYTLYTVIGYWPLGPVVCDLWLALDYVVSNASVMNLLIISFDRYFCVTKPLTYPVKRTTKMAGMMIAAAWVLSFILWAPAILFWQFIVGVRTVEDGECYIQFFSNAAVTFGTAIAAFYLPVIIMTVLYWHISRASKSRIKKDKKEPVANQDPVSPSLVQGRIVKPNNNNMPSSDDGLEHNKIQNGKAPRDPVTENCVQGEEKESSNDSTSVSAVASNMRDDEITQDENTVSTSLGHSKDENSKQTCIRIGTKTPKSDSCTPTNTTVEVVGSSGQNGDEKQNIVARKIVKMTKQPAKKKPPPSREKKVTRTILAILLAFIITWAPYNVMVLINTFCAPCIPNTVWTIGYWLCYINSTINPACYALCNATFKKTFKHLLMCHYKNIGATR

[8] = molecular target: Histamine H1 receptor (Homo sapiens, UniProt P35367)
Sequence of Histamine H1 receptor (P35367 whole entry): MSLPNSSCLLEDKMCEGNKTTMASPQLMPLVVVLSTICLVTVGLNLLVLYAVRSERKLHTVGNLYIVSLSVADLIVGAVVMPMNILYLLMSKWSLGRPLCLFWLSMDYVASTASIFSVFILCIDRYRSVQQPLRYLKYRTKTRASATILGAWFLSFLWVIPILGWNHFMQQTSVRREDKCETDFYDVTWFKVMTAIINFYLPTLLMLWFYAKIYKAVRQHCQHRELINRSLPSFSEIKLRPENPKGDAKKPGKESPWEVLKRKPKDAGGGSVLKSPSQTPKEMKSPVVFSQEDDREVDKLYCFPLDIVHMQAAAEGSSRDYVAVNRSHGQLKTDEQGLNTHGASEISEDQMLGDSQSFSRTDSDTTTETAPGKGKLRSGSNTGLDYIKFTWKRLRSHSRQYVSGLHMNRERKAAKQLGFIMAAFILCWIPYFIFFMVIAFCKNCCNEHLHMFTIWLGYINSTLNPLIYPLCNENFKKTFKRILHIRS

[9] = molecular target: Kappa-type opioid receptor (Homo sapiens, UniProt P41145)
Sequence of Kappa-type opioid receptor (P41145 whole entry): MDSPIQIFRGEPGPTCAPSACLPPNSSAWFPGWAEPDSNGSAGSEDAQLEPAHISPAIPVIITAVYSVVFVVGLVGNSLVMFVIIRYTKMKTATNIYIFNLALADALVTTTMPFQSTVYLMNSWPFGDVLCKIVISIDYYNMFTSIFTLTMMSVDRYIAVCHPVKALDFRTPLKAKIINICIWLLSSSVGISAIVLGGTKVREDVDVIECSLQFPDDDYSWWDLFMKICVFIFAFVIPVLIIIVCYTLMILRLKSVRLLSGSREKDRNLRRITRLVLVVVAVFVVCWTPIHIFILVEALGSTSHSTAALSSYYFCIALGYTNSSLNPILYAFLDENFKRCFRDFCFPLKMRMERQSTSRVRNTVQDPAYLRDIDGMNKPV

[10] = molecular target: T5, B2 bradykinin receptor (Homo sapiens, UniProt P30411)
T5 sequence (P30411 whole entry): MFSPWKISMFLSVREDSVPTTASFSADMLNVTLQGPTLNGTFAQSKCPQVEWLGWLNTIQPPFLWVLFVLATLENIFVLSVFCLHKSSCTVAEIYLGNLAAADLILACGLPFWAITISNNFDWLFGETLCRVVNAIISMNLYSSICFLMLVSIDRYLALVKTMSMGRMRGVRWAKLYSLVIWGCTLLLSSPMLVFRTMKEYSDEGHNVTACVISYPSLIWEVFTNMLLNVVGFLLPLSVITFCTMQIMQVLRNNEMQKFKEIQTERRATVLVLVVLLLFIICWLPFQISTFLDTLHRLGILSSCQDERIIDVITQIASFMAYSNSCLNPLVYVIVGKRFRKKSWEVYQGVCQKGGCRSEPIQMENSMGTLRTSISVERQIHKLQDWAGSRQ

[11] = molecular target: Motilin receptor (Homo sapiens, UniProt O43193)
Sequence of Motilin receptor (O43193 whole entry): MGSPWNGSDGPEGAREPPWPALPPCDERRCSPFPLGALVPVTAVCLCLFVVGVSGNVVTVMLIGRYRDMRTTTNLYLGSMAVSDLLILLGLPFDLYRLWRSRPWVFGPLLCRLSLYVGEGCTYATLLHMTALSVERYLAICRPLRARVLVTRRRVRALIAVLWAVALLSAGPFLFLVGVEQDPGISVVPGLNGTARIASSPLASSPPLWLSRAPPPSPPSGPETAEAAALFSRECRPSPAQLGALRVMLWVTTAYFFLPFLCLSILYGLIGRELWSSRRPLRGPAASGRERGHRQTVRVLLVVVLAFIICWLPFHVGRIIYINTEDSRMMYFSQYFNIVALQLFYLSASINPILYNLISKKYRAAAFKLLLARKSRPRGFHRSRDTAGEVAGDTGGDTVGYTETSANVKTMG

[12] = molecular target: Neuronal acetylcholine receptor subunit alpha-4 (Homo sapiens, UniProt P43681)
Also: assay procedure not described here.

Sequence of Sodium-dependent noradrenaline transporter (P23975 whole entry): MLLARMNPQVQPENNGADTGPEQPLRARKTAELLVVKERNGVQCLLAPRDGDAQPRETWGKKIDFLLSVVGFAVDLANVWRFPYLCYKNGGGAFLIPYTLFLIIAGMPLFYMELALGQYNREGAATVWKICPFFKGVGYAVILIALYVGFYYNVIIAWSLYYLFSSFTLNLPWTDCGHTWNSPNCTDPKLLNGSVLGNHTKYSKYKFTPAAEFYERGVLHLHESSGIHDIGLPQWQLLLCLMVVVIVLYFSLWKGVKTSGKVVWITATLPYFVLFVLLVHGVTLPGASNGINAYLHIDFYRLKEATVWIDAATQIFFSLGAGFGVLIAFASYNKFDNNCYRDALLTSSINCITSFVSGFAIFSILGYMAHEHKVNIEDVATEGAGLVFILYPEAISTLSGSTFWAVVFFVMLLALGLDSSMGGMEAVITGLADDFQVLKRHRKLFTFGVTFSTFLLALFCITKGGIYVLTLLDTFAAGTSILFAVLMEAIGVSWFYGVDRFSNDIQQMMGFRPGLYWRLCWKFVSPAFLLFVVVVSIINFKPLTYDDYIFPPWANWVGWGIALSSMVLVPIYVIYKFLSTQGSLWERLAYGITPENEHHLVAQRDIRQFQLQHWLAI
Sequence of Beta-2 adrenergic receptor (P07550 whole entry): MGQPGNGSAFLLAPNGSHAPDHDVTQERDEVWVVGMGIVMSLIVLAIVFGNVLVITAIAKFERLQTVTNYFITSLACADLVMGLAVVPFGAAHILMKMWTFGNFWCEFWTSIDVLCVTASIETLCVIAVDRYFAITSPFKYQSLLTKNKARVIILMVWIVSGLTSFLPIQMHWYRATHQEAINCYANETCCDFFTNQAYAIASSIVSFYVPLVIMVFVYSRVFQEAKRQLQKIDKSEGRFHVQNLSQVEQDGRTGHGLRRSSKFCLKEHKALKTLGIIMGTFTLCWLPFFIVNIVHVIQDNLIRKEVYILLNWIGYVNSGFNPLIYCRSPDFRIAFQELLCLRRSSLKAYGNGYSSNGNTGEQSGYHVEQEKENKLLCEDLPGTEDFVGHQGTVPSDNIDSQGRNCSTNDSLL

Row | SMILES | AC50 [1] | AC50 [2] | AC50 [3] | AC50 [4] | AC50 [5] | AC50 [6] | AC50 [7] | AC50 [8] | AC50 [9] | AC50 [10] | AC50 [11] | AC50 [12]
1 | N#Cc1ccccc1-c1cc(-c2ccccn2)cn(-c2ccccc2)c1=O | > 30 µM | > 30 µM | > 30 µM | > 30 µM | > 30 µM | > 30 µM | > 30 µM | > 30 µM | > 30 µM | > 30 µM | > 30 µM | > 30 µM
2 | N=C(N)NCCCCCCC(=O)NC(O)C(=O)NCCCCNCCCN (stereo not given) | > 30 µM | > 30 µM | > 30 µM | > 30 µM | > 30 µM | > 30 µM | > 30 µM | > 30 µM | > 30 µM | > 30 µM | > 30 µM | > 30 µM
3 | O=C(CCCN1CCC(n2c(O)nc3ccccc32)CC1)c1ccc(F)cc1 [BENPERIDOL] | 8.6 µM | 12 µM | > 30 µM | > 30 µM | > 30 µM | > 30 µM | 2.64 µM | 0.73 µM | 1.15 µM | > 30 µM | 26 µM | > 30 µM
4 | CCN(CC)C(=O)C1CN2CCc3cc(OC)c(OC)cc3C2CC1OC(C)=O (stereo not given) [BENZQUINAMIDE] | > 10 µM | > 30 µM | > 30 µM | > 30 µM | > 10 µM | > 30 µM | > 30 µM | > 30 µM | > 30 µM | > 30 µM | > 30 µM | > 30 µM
5 | CCC(=O)OCC(=O)[C@@]1(OC(=O)CC)[C@@H](C)C[C@H]2[C@@H]3CCC4=CC(=O)C=C[C@]4(C)[C@@]3(F)[C@@H](O)C[C@@]21C [BETAMETHASONE DIPROPIONATE] | > 30 µM | > 30 µM | > 10 µM | > 30 µM | > 30 µM | 24 µM | > 30 µM | > 30 µM | > 30 µM | > 30 µM | > 30 µM | > 30 µM
6 | CCOC(=O)NNc1ccc(N(CC)CC(C)O)nn1 (stereo not given) [CADRALAZINE] | > 30 µM | > 30 µM | > 30 µM | > 30 µM | > 30 µM | > 30 µM | > 30 µM | > 30 µM | > 30 µM | > 30 µM | > 30 µM | > 30 µM
7 | CCCC(C)(COC(N)=O)COC(=O)NC(C)C (stereo not given) [CARISOPRODOL] | > 10 µM | > 10 µM | > 30 µM | > 30 µM | > 10 µM | > 30 µM | > 10 µM | > 10 µM | > 10 µM | > 30 µM | > 10 µM | > 10 µM
8 | CCC(C)(Oc1ccc(C2(c3ccc(OC(C)(CC)C(=O)O)cc3)CCCCC2)cc1)C(=O)O (stereo not given) [CLINOFIBRATE] | > 30 µM | > 30 µM | > 30 µM | > 30 µM | > 30 µM | 20 µM | > 30 µM | > 30 µM | > 30 µM | > 30 µM | > 30 µM | > 30 µM
9 | CCCCC[C@H](O)/C=C/[C@H]1[C@H](O)CC(=O)[C@@H]1C/C=C\CCCC(=O)O [DINOPROSTONE] | > 30 µM | > 30 µM | 23 µM | > 30 µM | > 30 µM | > 30 µM | > 30 µM | > 30 µM | 22 µM | > 30 µM | > 30 µM | > 30 µM
10 | CC(C)c1cc2c(cc1S(=O)(=O)O)[C@@]1(C)CCC[C@@](C)(C(=O)O)[C@@H]1CC2 [ECABET] | > 30 µM | > 30 µM | > 30 µM | > 30 µM | > 30 µM | > 30 µM | > 30 µM | > 30 µM | 19 µM | > 30 µM | > 30 µM | > 30 µM
11 | COC(=O)N[C@@H](C)CNc1nccc(-c2cn(C(C)C)nc2-c2cc(Cl)cc(NS(C)(=O)=O)c2F)n1 [ENCORAFENIB] | > 30 µM | > 30 µM | > 30 µM | 22.1 µM | > 30 µM | > 30 µM | > 30 µM | > 30 µM | 13.7 µM | > 30 µM | > 30 µM | > 30 µM
12 | Clc1ccc2c(c1)C(c1ccccc1)=NCc1nncn1-2 [ESTAZOLAM] | > 10 µM | > 30 µM | > 30 µM | > 30 µM | > 10 µM | > 30 µM | > 10 µM | > 10 µM | 20.1 µM | > 30 µM | > 10 µM | > 10 µM
13 | CCCN(CC)C(CC)C(=O)Nc1c(C)cccc1C (stereo not given) [ETIDOCAINE] | > 30 µM | > 30 µM | > 30 µM | > 30 µM | > 30 µM | > 30 µM | > 30 µM | > 30 µM | > 30 µM | > 30 µM | > 30 µM | > 30 µM
14 | Nc1nc(F)nc2c1ncn2[C@@H]1O[C@H](COP(=O)(O)O)[C@@H](O)[C@@H]1O [FLUDARABINE PHOSPHATE] | > 30 µM | > 30 µM | > 30 µM | > 30 µM | > 30 µM | > 30 µM | > 30 µM | > 30 µM | > 30 µM | > 30 µM | > 30 µM | > 30 µM
15 | O=C(O)c1ccccc1Nc1cccc(C(F)(F)F)c1 [FLUFENAMIC ACID] | > 10 µM | > 30 µM | > 30 µM | > 30 µM | > 10 µM | 26.3 µM | > 10 µM | 0.082 µM | > 30 µM | > 30 µM | > 10 µM | > 10 µM
